We go through 6 molecules from US20260263596A1, “Programming B Cells to Produce IL-27 to Treat Inflammatory Diseases” (Board of Regents, The University of Texas System, priority 2022, published 2026).

Entries after “also recorded” stand apart in the source; their conditions may differ.

In assay [1] the test system is B cells. As to the kind of experiment: IL-27 induction in B cells by innate priming followed by CD154 or αCD40 plus IL-21. The settings on record: then CD154 or αCD40 plus IL-21; for IL-27 secretion / IL-27 induction by primed B cells: priming with CDN, compared with gold-standard LPS priming; for priming of B cells for induction of Il27p28 and Ebi3: 30 μg/ml for 4 h. In kind it is cell-based, mouse.

Assay [2] deals with STING. The note with it: cited from earlier work.
The target of assay [3] is STING (Homo sapiens, UniProt Q86WV6). The note with it: relative to c-di-GMP; cited from earlier work.
The subject of the next assay is ILC3s. As to the kind of experiment: IL-27 stimulation of in vitro amplified ILC3s, FACS. In kind it is cell-based, C57 mice. From the text:
FIG. 5A-5C. […] ILC3s were sort enriched (70%) by surface markers (IL-7R+CD45+Lin−CD117+ST2−) from mesenteric lymph nodes and cultured in the presence of IL-2 and IL-7 (to promote ILC survival) as well as IL-1B plus IL-23 (to promote ILC3 proliferation)—CD117 and ST2 are preferentially, albeit not exclusively, expressed by ILC3s and ILC2s, respectively. After 7 d of culture, ILCs were amplified by >10-fold and accounted for >95% of all cells. After washing to remove cytokines, ILC3s were stimulated with nil, IL-1P/IL-23 (to promote basal IL-22 expression in ILC3s) or IL-27 for 12 h. Cells were analyzed by FACS for expression of (A) T-bet, NKp46 and (B) IL-22, IL-17A and IFNγ, as quantified in (C).
Analyze the impact of recombinant IL-27 (in vitro) and B-27 cells (in vivo) on ILC3 gene protein expression. Tg(Rorc-cre)34 (JAX #022791) and Rosa26fl-STOP-fl-EYFP (JAX #006148) mice will be crossed to generate TgRorc-creRosa26fl-STOP-fl-EYFP mice, which will allow us to sort purify EYFP+IL-7R+CD45+Lin−CD117+ST2−ILC3s. Sorted ILC3s will be cultured in the presence of IL-7 and IL-2, which promote ILC survival, and stimulated them with recombinant IL-27 for 0 h, 6 h, 12 h and 24 h.

Assay [4] has as its system B cells. The note with it: cited from earlier work.
Assay [5] deals with STAT transcription factors. As to the kind of experiment: STAT activation by human IL-27. In kind it is cell-based.
The mark [6] stands for this setting: enriched, in vitro amplified ILC3s from C57 mice, 12 h.

Chain of STING (Homo sapiens, UniProt Q86WV6) (Q86WV6 whole entry H232R, species assumed): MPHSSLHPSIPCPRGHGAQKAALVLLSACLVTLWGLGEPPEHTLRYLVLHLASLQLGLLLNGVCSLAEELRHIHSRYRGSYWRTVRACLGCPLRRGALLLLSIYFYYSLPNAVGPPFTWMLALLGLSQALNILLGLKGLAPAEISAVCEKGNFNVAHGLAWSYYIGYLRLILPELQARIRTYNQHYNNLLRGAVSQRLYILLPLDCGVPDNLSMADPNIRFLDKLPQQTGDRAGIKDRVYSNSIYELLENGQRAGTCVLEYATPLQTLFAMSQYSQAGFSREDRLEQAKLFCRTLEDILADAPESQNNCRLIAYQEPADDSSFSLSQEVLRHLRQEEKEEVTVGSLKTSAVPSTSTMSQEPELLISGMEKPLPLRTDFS

For `Nc1nc2c(ncn2[C@@H]2O[C@H](CO)[C@@H](O)[C@H]2OP(=O)(O)OC[C@H]2O[C@@H](n3cnc4c(N)ncnc43)[C@H](O)[C@@H]2OP(=O)(O)O)c(=O)[nH]1` [2′5′-GpAp, linear GMP-AMP], the “IL-27 secretion / IL-27 induction by primed B cells” value (“IL-27 secretion / IL-27 induction” below) in the assay on B cells [1] is given as “inefficient”. Also, the STING activation entry in the assay on STING [2] was “does not activate STING”.

`Nc1nc2c(ncn2[C@@H]2O[C@@H]3COP(=O)(O)O[C@H]4[C@@H](O)[C@H](n5cnc6c(=O)[nH]c(N)nc65)O[C@@H]4COP(=O)(O)O[C@H]3[C@H]2O)c(=O)[nH]1` [c-di-GMP, 3′-5′ c-di-GMP]: in the assay with B cells [1], the “priming of B cells for induction of Il27p28 and Ebi3” value is recorded as “sufficient”; the “IL-27 secretion / IL-27 induction” value was “at the same magnitude as those of IL-27 induced by the gold-standard condition”.

In the case of `Nc1ncnc2c1ncn2[C@@H]1O[C@@H]2COP(=O)(O)O[C@H]3[C@@H](O)[C@H](n4cnc5c(N)ncnc54)O[C@@H]3COP(=O)(O)O[C@H]2[C@H]1O` [c-di-AMP, 3′-5′ c-di-AMP], the “IL-27 secretion / IL-27 induction” value in the assay with B cells [1] is given as “inefficient”. The “affinity to STING” value on STING [3] was “much lower affinity to STING than c-di-GMP”.

On to cyclic GMP-AMP [cGAMP], for which, in the assay with B cells [1], the “priming of B cells for induction of Il27p28 and Ebi3” value is on record as “sufficient”; the “IL-27 secretion / IL-27 induction” value is listed as “prime B cells for IL-27 induction by CD154; also recorded: at the same magnitude as those of IL-27 induced by the gold-standard condition”.

B1: IL-27: pleiotropic cytokine, heterodimer of IL-27p28 and EBI3 (protein, UniProt Q8NEV9 29-243; Q14213 21-229, looked up)
Interleukin-27 subunit alpha: FPRPPGRPQLSLQELRREFTVSLHLARKLLSEVRGQAHRFAESHLPGVNLYLLPLGEQLPDVSLTFQAWRRLSDPERLCFISTTLQPFHALLGGLGTQGRWTNMERMQLWAMRLDLRDLQRHLRFQVLAAGFNLPEEEEEEEEEEEEERKGLLPGALGSALQGPAQVSWPQLLSTYRLLHSLELVLSRAVRELLLLSKAGHSVWPLGFPTLSPQP
Interleukin-27 subunit beta: RKGPPAALTLPRVQCRASRYPIAVDCSWTLPPAPNSTSPVSFIATYRLGMAARGHSWPCLQQTPTSTSCTITDVQLFSMAPYVLNVTAVHPWGSSSSFVPFITEHIIKPDPPEGVRLSPLAERQLQVQWEPPGSWPFPEIFSLKYWIRYKRQGAARFHRVGPIEATSFILRAVRPRARYYVQVAAQDLTDYGELSDWSLPATATMSLGK
As to B1, in the assay with ILC3s (setting [6]), the “IFNγ in ILC3s” value is “did not affect”, the “IL-17 in ILC3s” value is on record as “reduced”, the “expression of IL-22 in ILC3s” value is recorded as “upregulated” and the “expression of T-bet in ILC3s” value is listed as “upregulated”. The “polarization of ILC3s to express T-bet and IL-22” value in the assay with ILC3s (in vitro) is “polarizes ILC3s to express T-bet and IL-22; also recorded: can polarize ILC3s in vitro to express T-bet and IL-22”. Moreover, the “STAT1/STAT3 activation, T-bet expression and IFNγ gene signature in B cells” value in the assay on B cells [4] was “induce STAT1/STAT3 activation, T-bet expression, and IFNγ gene signature”.

B2: human IL-27: human cytokine IL-27 (protein, UniProt Q8NEV9 29-243; Q14213 21-229, looked up)
Interleukin-27 subunit alpha: FPRPPGRPQLSLQELRREFTVSLHLARKLLSEVRGQAHRFAESHLPGVNLYLLPLGEQLPDVSLTFQAWRRLSDPERLCFISTTLQPFHALLGGLGTQGRWTNMERMQLWAMRLDLRDLQRHLRFQVLAAGFNLPEEEEEEEEEEEEERKGLLPGALGSALQGPAQVSWPQLLSTYRLLHSLELVLSRAVRELLLLSKAGHSVWPLGFPTLSPQP
Interleukin-27 subunit beta: RKGPPAALTLPRVQCRASRYPIAVDCSWTLPPAPNSTSPVSFIATYRLGMAARGHSWPCLQQTPTSTSCTITDVQLFSMAPYVLNVTAVHPWGSSSSFVPFITEHIIKPDPPEGVRLSPLAERQLQVQWEPPGSWPFPEIFSLKYWIRYKRQGAARFHRVGPIEATSFILRAVRPRARYYVQVAAQDLTDYGELSDWSLPATATMSLGK
Turning to B2, the “activation of STAT transcription factors” value in assay [5] was “can activate STAT transcription factors”.
